Experimental data taken from patent US20220364184A1, “COMPOSITIONS AND METHODS FOR TREATMENT OF A POOR PROGNOSIS SUBTYPE OF COLORECTAL CANCER” (DANA-FARBER CANCER INSTITUTE, INC., priority 2019, published 2022).

B1: Wnt3A: Wnt ligand used to treat RKO cells (protein, UniProt P56704 19-352, looked up)
Protein Wnt-3a: SYPIWWSLAVGPQYSSLGSQPILCASIPGLVPKQLRFCRNYVEIMPSVAEGIKIGIQECQHQFRGRRWNCTTVHDSLAIFGPVLDKATRESAFVHAIASAGVAFAVTRSCAEGTAAICGCSSRHQGSPGKGWKWGGCSEDIEFGGMVSREFADARENRPDARSAMNRHNNEAGRQAIASHMHLKCKCHGLSGSCEVKTCWWSQPDFRAIGDFLKDKYDSASEMVVEKHRESRGWVETLRPRYTYFKVPTERDLVYYEASPNFCEPNPETGSFGTRDRTCNVSSHGIDGCDLLCCGRGHNARAERRREKCRCVFHWCCYVSCQECTRVYDVHTCK

Columns and labels:
Type in all cases: cell-based, human
[1] = tested on: BCL9; test: Immunofluorescence / FISH of BCL9 localization; conditions: RKO cells
Description: At various times after the scratch was made, cells were fixed with 4% paraformaldehyde for 15 minutes at room temperature. Immunofluorescence was subsequently used to identify the location of BCL9 (see immunofluorescence method section for more detail).
Cells were cultured on coming Glass Coverslips (354085, BioCoat) contained within the wells of a 24-well plate for 24 hrs, and then fixed using 4% paraformaldehyde. Cells were washed three times with PBS, permeabilized with 0.5% Triton X-100 (Tris-HCl pH=7.6, 150 mM NaCl, 0.5% Triton X-100 (v/v), washing buffer) for 15 minutes at room temperature, and blocked with 5% BSA for 1 hour at room temperature. The cells were incubated overnight at 4 degrees with the following antibodies; anti-BCL9 (ab37305, Abcam®), NONO (TA504777, Origene®), ILF2 (PA5-18718, ThermoFisher®) or β-catenin (610154, BD Transduction Laboratories). The following day, cells were washed 3 times with PBS and incubated with fluorescently tagged anti-mouse (A11029, ThermoFisher®), rabbit (A11035, ThermoFisher®) or goat (A21447, ThermoFisher®) secondary antibodies for 1 hour at room temperature. Cells were washed 3 times with PBS and stained with DAPI (D9542, Millipore-Sigma®) for two mins. Cells were subsequently washed three times with PBS to remove any residual DAPI stain, and then imaged with an SD confocal microscope. The colocalization threshold is calculated by ImageJ2. Dotted staining area of BCL9 was calculated by the following step: confocal images were processed by High Frequency Signaling Removal to filter out the rapidly changing signal. This process removes the noise and non-dotted staining of BCL9. Then, the top 2% signaling areas were selected. High Frequency Signaling Removal and area size was calculated by ImageJ2. NEAT1 and fluorescence probe was purchased from Biosearch Technology (NEAT1, SMF-2036-1). IF combined FISH of BCL9/NEAT1 was performed as recommended by the supplier.

[2] = tested on: BCL9/β-catenin protein complex; test: Coimmunoprecipitation of BCL9/β-catenin complex
Description: To extract nuclear protein, cells were incubated with cytoplasmic lysis buffer (50 mM Tris-HCl pH=8.0, 20 mM NaCl, 2 mM EDTA, 0.5% Tween-20 containing protease/phosphatase Inhibitor, #5872, Cell Signaling®) on ice for 10 mins, centrifuged at 6000×g, and the precipitate collected. This step was repeated 3 times to remove at much cytoplasmic protein as possible. Subsequently, nuclear lysis buffer (50 mM Tris-HCl pH=7.4, 150 mM NaCl, 2 mM EDTA, 1% Triton X-100(v/v) containing protease/phosphatase inhibitor) was added to the precipitate, and sonication was used to lyse the sample before centrifugation at 16000×g for 15 minutes at 4 degrees. 1 mg of the nuclear lysate was blocked with 5% BSA for 1 hr at 4 degrees, before overnight incubation with anti-BCL9 (ab37305 Abcam®, 6109 generated in New England Biolabs), NONO (ab70335, Abcam®), SFPQ (ab38148), ILF2 (H00003608-D01, abnova) or β-catenin (9562L, Cell Signaling®) antibodies. Normal rabbit IgG (sc-3888, Santa Cruz®) was used as a negative control. The following day, Protein G and A DynaBeads (10003D, 10002D, ThermoFisher®) were added to the nuclear lysate at a ratio of 1:1 and rotated for an additional 4 hrs. […] In addition, pulled down protein samples were analyzed by silver staining; bands which existed in anti-BCL9 samples, but not in the anti-normal IgG groups, were cut and used for further MS analysis to validate previous results. […]

[3] = tested on: RKO cells; test: Live-cell calcium imaging of spontaneous calcium transients (GCaMP5); conditions: calcium wave spike library
Description: 2 mg/ml neomycin was added to the cell culture medium 48 hrs after transfection to generate cell lines with stable GCaMP5 expression and removed one week prior to the initiation of experiment. Calcium transients were captured by live-cell imaging using a confocal microscope. Time lapse imaging was setup so that an image was captured every 0.5 s for 30 minutes, with an exposure time of 0.5 s. Calcium measurements were normalized to background fluorescence and the relative change in calcium (F(t)) over time was calculated by the formula: […]
where F0 was defined as the average intensity of the 20% lowest grey values in a region of interest (ROI), F was defined as the normalized grey values of ROI in time point t. Global synchronicity was calculated by cross correlation method in FluoroSNNAP (seas.upenn.edu/˜molneuro/fluorosnnap.html).

[4] = tested on: DLD-1 cells; test: IF and Co-IP of BCL9 with paraspeckle proteins in DLD-1 cells
Description: To extract nuclear protein, cells were incubated with cytoplasmic lysis buffer (50 mM Tris-HCl pH=8.0, 20 mM NaCl, 2 mM EDTA, 0.5% Tween-20 containing protease/phosphatase Inhibitor, #5872, Cell Signaling®) on ice for 10 mins, centrifuged at 6000×g, and the precipitate collected. This step was repeated 3 times to remove at much cytoplasmic protein as possible. Subsequently, nuclear lysis buffer (50 mM Tris-HCl pH=7.4, 150 mM NaCl, 2 mM EDTA, 1% Triton X-100(v/v) containing protease/phosphatase inhibitor) was added to the precipitate, and sonication was used to lyse the sample before centrifugation at 16000×g for 15 minutes at 4 degrees. […] In addition, pulled down protein samples were analyzed by silver staining; bands which existed in anti-BCL9 samples, but not in the anti-normal IgG groups, were cut and used for further MS analysis to validate previous results. […]
Cells were cultured on coming Glass Coverslips (354085, BioCoat) contained within the wells of a 24-well plate for 24 hrs, and then fixed using 4% paraformaldehyde. […] The colocalization threshold is calculated by ImageJ2. Dotted staining area of BCL9 was calculated by the following step: confocal images were processed by High Frequency Signaling Removal to filter out the rapidly changing signal. […]

[5] = tested on: RGS4, CACNA2D1, ADRB1 mRNA; test: mRNA expression by RNA-seq / qRT-PCR; conditions: FIG. 3J
Description: RNA was extracted from wild type and BCL9 knockout RKO cells with or without Poly I:C treatment (1 μg/ml) and subsequently purified using the TURBO DNA-free™ Kit (AM1907, invitrogen) to remove any residual DNA. An RNA library was prepared using the ribosome RNA removing method and sequenced with a 150 bp paired-end protocol in the Center for Cancer Computational Biology at the Dana Farber Cancer Institute (PRJNA554110). After quality control (QC) analysis was performed using fastQC, the first 10 bases were trimmed for each read. STAR software was used to map the readings to the human genome (hg19) and duplicates were removed using Picard. HTSeq was used to evaluate the gene expression levels by the count number for each gene and were subsequently annotated using the Ensemble database. Gene differential analysis was then applied to the expression profiling table using R package edgeR. For further analysis, the difference in exon usage between different conditions was calculated and R package DEXSeq was used to find differences between them.

[6] = tested on: BCL9; test: Immunoblotting of protein levels; conditions: longer exposure, FIG. 3F and 16D
Description: Following lysis, cells were incubated on ice for 10 minutes and centrifuged for 10 minutes at 4 degrees at 16000×g.

[7] = tested on: RKO cells; test: Cell viability of wild-type and BCL9 knockout RKO cells after Poly I:C
[8] = tested on: BCL9/paraspeckle proteins (NONO, SFPQ, ILF2); test: Coimmunoprecipitation of BCL9 with paraspeckle proteins; conditions: RKO cells, FIG. 16K
Description: This step was repeated 3 times to remove at much cytoplasmic protein as possible. Subsequently, nuclear lysis buffer (50 mM Tris-HCl pH=7.4, 150 mM NaCl, 2 mM EDTA, 1% Triton X-100(v/v) containing protease/phosphatase inhibitor) was added to the precipitate, and sonication was used to lyse the sample before centrifugation at 16000×g for 15 minutes at 4 degrees. […] The following day, Protein G and A DynaBeads (10003D, 10002D, ThermoFisher®) were added to the nuclear lysate at a ratio of 1:1 and rotated for an additional 4 hrs. The beads were washed 3 times with washing buffer (50 mM Tris-HCl pH=7.4, 200 mM NaCl, 2 mM EDTA, 1% Triton X-100(v/v)). The beads were then re-suspended with 2×LDS sample buffer and boiled for 10 mins. For Immunoblotting, the sample was electrophoresed using SDS-PAGE, transferred to nitrocellulose membrane and blocked using non-fat 5% milk.

Molecule | partial co-localization between BCL9/IF and NEAT1/FISH signals ([1]; FIG. 16I) | accumulation of BCL9 around the nucleus ([1]; after 6 hrs, FIG. 16C) | BCL9 accumulation around the nucleolus ([1]; longer exposure, FIG. 3F) | amount of BCL9/β-catenin protein complex ([2]; Colo320 cells, FIG. 16J) | length and amplitude of calcium transients ([3]; BCL9 knockout cells) | length and amplitude of calcium transients ([3]; wild-type cells) | location and interaction of BCL9 with paraspeckle proteins [4] | transcription of the full-length RGS4 mRNA isoform ([5]; BCL9 knockout cells) | expression of RGS4, CACNA2D1 and ADRB1 ([5]; wild-type RKO cells, RNA-seq, Poly I:C 1 μg/ml) | BCL9 and ILF2 protein levels [6] | growth of cells ([7]; BCL9 knockout RKO cells) | growth of cells ([7]; wild-type RKO cells) | BCL9 binding to paraspeckle proteins [8] | interaction between BCL9 and β-catenin ([2]; RKO cells, FIG. 16K)
poly I:C | increased | accumulation of BCL9 around the nucleus was observed | induced further BCL9 accumulation around the nucleolus | reduced | not | enhanced | unresponsive | not rescued | increased | increased | not | increased | – | –
B1 | – | – | – | – | – | – | – | – | – | – | – | – | did not affect | increased
